Measured values from BindingDB's records for doi:10.1016/0960-894X(96)00376-9 (1996).

assay: Binding affinity against human Alpha-1b adrenergic receptor

Ki [nM]	Compound
1150	O=C(c1nc(-c2c[nH]c3ccccc23)c[nH]1)c1c[nH]c2cc(O)ccc12
520	Brc1ccc2c(-c3c[nH]c(-c4c[nH]c5cc(Br)ccc45)n3)c[nH]c2c1 [Nortopsentin A]
130	Brc1ccc2c(-c3nc(-c4c[nH]c5ccccc45)c[nH]3)c[nH]c2c1 [Nortopsentin B]
170	Brc1ccc2c(-c3c[nH]c(-c4c[nH]c5ccccc45)n3)c[nH]c2c1 [Nortopsentin C]
740	O=C(c1nc(-c2c[nH]c3cc(Br)ccc23)c[nH]1)c1c[nH]c2cc(O)ccc12 [topsentin B2]
